Consider 2 compounds from US20120093948A1, “Nitric Oxide Treatments” (priority 2009, published 2012).

Structures are written as SMILES. Read-outs that look alike come from different tables or passages of the source.

The subject of one data set is man. Conditions: cited from earlier work.
For another data set, the system named is Mouse. The settings on record: less than 1 ppm, cited from earlier work.
For another data set, the system named is Guinea Pig. Conditions: less than 1 ppm, duration 7 days; cited from earlier work.
In another data set the test system is Rabbit. The settings on record: less than 1 ppm, duration 24 days; cited from earlier work.
Another data set concerns rats. The experiment in a line: Fourteen-day toxicity study using the delivery devices, rats. It is filed as in vivo. Conditions: doses well in excess of 80 ppm NO.
The next data set has as its system dogs. The data set is described as follows: Fourteen-day toxicity study using the delivery devices, dogs. The settings on record: doses well in excess of 80 ppm NO. It is filed as in vivo.
Data set [1] relates to patients with cardiogenic shock due to RVMI. Conditions: cited from earlier work.
Data set [2] deals with patients with pulmonary tuberculosis. The settings on record: 80 ppm; cited from earlier work.
Data set [3] concerns patients with pulmonary fibrosis. The settings on record: inhaled; cited from earlier work.
Data set [4] relates to child with traumatic brain injury. Conditions: NO therapy; cited from earlier work.
Data set [5] relates to patents suffering massive pulmonary embolism. The settings on record: inhaled; cited from earlier work.
In another data set the test system is mice models of malaria. The settings on record: mouse, in vivo; cited from earlier work.
The subject of data set [6] is newborns with hypoxic respiratory failure. The settings on record: inhaled; cited from earlier work.
Data set [7] deals with patients with acute lung injury/acute respiratory distress syndrome. The settings on record: conventional iNO; cited from earlier work.
Another data set deals with COPD patients. The settings on record: NO with oxygen, 3 month period, compared to oxygen alone; cited from earlier work.

In the case of `[O]N=O` [NO2, nitrogen dioxide], the OUTCOME in the data set with man (NO2 dose 0.1 ppm, exposure 60 min, asthmatics) was 13/16 asthmatics increase in reaction to; in the data set with man (NO2 dose 0.7-2.0 ppm, exposure 10 min), “Increase in inspiratory and expiratory flow”; in the data set on man (NO2 dose 1.6-2.0 ppm, exposure 15 min), “Significant increase in total airway resistance”. The “OUTCOME(S)” value is “Increased ascorbic acid levels in the liver” with Mouse (duration 1 day), “Depression in serum neutralizing” in the data set on Mouse (duration 90 days), “Increased protein content of lung lavage fluid” with Guinea Pig and “Structural changes in lung collagen fibers” in the data set on Rabbit.
Regarding `[N]=O` [NO, nitric oxide], in the data set on rats, the “Fourteen-day toxicity study outcome” value is “successfully been completed”. Besides, the “Fourteen-day toxicity study outcome” value in the data set on dogs is reported as “successfully been completed”. For the same compound, in data set [1] (NO 80 ppm acutely), the “decreased mPAP” value is on record as 12%, the “decreased mRAP” value is reported as 12% and the improved cardiac index is recorded as 24%. In data set [1] (inhaled NO), the decrease shunt flow is recorded as 56% and the systemic oxygen saturation result was “markedly improved”. The safety of delivery result in data set [2] is “safely delivered”. Further, in data set [3], the arterial oxygen tension entry is listed as “without a decrease”, the pulmonary vascular resistance entry is given as “decreased” and the ventilation perfusion matching result was “maintained”. Moreover, in data set [4], the adverse cerebral effects result was “No adverse cerebral effects”. Further, the “systemic blood pressures, heart rate and gas exchange” value in data set [5] is recorded as “improvements”. Besides, in the data set on mice models of malaria, the neurological damage entry was “protection” and the survival entry is on record as “increased chance of survival”. Moreover, in data set [6], the arterial oxygen levels result is on record as “safely improves” and the “need for Extracorporeal Membrane Oxygenation (ECMO)” value is recorded as “decreases”. For the same compound, the “outcomes (increased PaO2, survival)” value in [7] is “positive outcomes”. Besides, in the data set with COPD patients, the oxygenation entry is “did not result in a decrease”.
